The results in this text go back to US6753177B1, “P-glycoproteins and uses thereof” (Becton Dickinson and Company, priority 1999, dated 2004).

The target in this data set is T1, dog PGP (Canis lupus familiaris, UniProt C0KKU9).
T1 construct: expressed in transfected cells; host or cells: LLC-PK1 cells (ATCC), electroporated with the p222CMV episomal vector and selected with hygromycin B
Description: Polarization of vinblastine transport across dog PGP transfected LLC-PK1 cell monolayers in Transwells. Format: cell-based. Conditions: PGP transfected cells, compared with control cells; vinblastine (0.1 uM) transport in Transwells.
Description: Dog PGP cDNA (SEQ ID NO:1) is introduced into a clonal population of LLC-PK1 cells in a vector that confers resistance to hygromycin B. LLC-PK1 cells are obtained from the American Type Culture Collections and are propagated in Medium 199 supplemented to 7% with fetal bovine serum. LLC-PK1 cells are recloned prior to transfection in order to assure homogeneity of the cell population. Briefly, dog PGP cDNA is incorporated into the p222CMV vector. […] The PGP cDNA is under the control of the cytomegalovirus (CMV) immediate early promoter. The vector confers resistance to hygromycin B. Cells (in 0.4 mL) and DNA (10 to 20 μg) were transfected by electroporation using a BTX Electro cell manipulator model 600 using a 2 mm gap cell, 100V, 2500 μF capacitance and 72 ohm resistance. […] Expression of PGP is measured by the polarization of vinblastine (0.1 uM) transport in Transwells™.
LLC-PK1 cell based transport studies are conducted in 24 well Transwells™ (Corning Costar, Catalog number 3415). […] Transport is measured under sink conditions in both the apical to basolateral (A to B) and basolateral to apical (B to A) directions. […] Quantitation of the amount of compound transported is by liquid scintillation counting (vinblastine) or HPLC with UV or mass spectrometric detection.
Functional expression of dog PGP is measured by the polarization of transport of vinblastine.

T1 sequence (C0KKU9 1-1281): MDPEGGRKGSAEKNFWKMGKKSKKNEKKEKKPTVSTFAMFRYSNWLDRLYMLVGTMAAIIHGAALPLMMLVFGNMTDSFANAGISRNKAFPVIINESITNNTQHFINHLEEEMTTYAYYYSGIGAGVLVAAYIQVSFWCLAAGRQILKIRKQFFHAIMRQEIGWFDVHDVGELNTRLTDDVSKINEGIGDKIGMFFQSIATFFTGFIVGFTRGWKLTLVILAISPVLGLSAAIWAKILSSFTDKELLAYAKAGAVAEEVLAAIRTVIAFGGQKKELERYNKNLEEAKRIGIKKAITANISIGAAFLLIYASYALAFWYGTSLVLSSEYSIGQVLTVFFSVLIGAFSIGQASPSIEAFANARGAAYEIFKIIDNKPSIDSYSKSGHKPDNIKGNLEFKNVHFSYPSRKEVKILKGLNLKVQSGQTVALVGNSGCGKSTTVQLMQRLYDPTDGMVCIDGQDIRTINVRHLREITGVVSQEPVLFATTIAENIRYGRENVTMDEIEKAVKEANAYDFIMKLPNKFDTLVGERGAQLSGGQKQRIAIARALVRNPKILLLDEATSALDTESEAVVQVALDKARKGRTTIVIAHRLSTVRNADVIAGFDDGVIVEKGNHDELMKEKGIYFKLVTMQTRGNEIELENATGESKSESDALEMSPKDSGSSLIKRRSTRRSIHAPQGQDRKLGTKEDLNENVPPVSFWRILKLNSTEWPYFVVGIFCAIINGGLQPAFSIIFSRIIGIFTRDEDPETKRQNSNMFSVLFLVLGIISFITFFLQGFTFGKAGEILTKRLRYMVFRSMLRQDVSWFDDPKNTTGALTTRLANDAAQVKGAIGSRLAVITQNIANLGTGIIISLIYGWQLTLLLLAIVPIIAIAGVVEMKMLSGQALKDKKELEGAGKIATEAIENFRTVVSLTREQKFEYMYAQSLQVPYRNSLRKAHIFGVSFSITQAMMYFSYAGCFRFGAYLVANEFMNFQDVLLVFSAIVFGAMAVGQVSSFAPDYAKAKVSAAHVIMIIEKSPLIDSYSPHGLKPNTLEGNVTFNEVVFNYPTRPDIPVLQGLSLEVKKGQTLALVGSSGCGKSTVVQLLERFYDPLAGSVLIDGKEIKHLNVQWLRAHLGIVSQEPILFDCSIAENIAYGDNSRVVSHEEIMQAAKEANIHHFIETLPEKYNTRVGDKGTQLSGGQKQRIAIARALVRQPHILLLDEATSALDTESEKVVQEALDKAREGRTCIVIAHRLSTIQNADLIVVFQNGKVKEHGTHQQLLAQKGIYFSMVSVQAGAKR

As to `CC[C@]1(O)C[C@@H]2CN(CCc3c([nH]c4ccccc34)[C@@](C(=O)OC)(c3cc4c(cc3OC)N(C)[C@H]3[C@@](O)(C(=O)OC)[C@H](OC(C)=O)[C@]5(CC)C=CCN6CC[C@]43[C@@H]65)C2)C1` [vinblastine], the “B to A/A to B ratio” value was “much higher ratio”.
